Here are results for two molecules from patent US10906901B2, “Crystal form and salt form of N-phenyl-2-aminopyrimidine compound, and preparation method therefor” (HAINAN YUEKANG BIOMEDICINES CO., LTD., priority 2017, dated 2021).

Values after ≈ are worked out from the molar mass of the structure shown.

A short description of data set [1]: Accelerated stability test. It counts as physicochemical.
For data set [2], the system named is cells with single or double EGFR mutations. As to conditions: described in Chinese Patent Application 201610679161.7; cited from earlier work.
The nature of data set [3]: physchem. As to conditions: thermodynamic from solid.
Method: Subsequently, 2 mL of buffer solutions at pH 1.2 and 6.8 were added respectively to prepare a saturated solution. The above resulting suspensions were placed in a shaker and shaken at a speed of 200 rpm for 2 hours at 25° C. The resulting mixtures were filtered, and the filtrates were diluted by an appropriate multiple and analyzed by HPLC to determine the solubility of each sample in different media.
Data set [4] can be described thus: Dynamic Vapor Sorption (DVS). In kind it is physicochemical.
The target in data set [5] is EGFR (Homo sapiens, UniProt P00533). The following applies: described in Chinese Patent Application 201610679161.7; cited from earlier work.
The nature of data set [6]: Bioavailability assay, single oral dose of capsules in Beagle dogs. The following applies: single oral dose 3 mg/kg, crystalline powders in capsules.

Chain of EGFR (P00533 25-1210): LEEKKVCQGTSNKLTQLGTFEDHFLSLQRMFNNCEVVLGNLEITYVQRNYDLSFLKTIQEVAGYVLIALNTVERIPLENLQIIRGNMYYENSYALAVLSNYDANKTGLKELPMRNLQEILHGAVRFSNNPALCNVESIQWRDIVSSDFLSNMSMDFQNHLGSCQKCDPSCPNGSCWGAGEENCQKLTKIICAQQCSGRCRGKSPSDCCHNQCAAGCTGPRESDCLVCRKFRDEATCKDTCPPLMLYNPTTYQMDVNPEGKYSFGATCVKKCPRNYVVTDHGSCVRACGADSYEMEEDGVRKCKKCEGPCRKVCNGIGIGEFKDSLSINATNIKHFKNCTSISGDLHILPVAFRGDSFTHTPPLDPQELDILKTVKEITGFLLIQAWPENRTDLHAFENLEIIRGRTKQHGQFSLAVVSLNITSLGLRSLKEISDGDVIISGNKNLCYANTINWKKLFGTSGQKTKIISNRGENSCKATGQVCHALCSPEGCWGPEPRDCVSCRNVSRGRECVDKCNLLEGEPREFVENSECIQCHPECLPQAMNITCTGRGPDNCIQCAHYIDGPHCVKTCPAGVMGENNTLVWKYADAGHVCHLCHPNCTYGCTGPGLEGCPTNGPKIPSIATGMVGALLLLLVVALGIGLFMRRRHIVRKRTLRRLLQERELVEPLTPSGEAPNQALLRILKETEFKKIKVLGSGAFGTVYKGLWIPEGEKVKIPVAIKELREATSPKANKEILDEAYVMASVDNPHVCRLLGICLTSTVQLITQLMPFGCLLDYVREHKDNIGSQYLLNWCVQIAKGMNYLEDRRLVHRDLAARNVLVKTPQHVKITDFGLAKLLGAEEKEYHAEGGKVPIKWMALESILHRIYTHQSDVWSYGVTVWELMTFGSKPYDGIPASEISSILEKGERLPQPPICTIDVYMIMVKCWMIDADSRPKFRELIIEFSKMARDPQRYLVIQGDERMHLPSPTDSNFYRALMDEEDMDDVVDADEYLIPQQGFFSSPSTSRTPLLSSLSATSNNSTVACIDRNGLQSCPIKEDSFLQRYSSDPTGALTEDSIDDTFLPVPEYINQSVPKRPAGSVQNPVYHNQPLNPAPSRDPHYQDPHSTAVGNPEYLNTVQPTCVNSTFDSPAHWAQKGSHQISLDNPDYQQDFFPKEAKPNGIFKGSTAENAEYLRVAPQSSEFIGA

`C=CC(=O)Nc1cc(Nc2nccc(-c3cnc4c(C)cccn34)n2)c(OC)cc1N(C)CCN(C)C` [Compound 1, N-(2-methoxy-4-(N^1,N^2,N^2-trimethyl-1,2-ethylenediamine-1-yl)-5-acrylamidephenyl)-4-(8-methylimidazo[1,2-a]pyridin-3-yl)pyrimidin-2-amine]: the “crystal structure after the accelerated stability test” value in data set [1] is recorded as “does not change”. Also, the chemical stability result in data set [1] (when avoiding the light) is listed as “good chemical stability”. Further, the “inhibitory activity on cells with single or double EGFR mutations” value in data set [2] is “strong inhibitory activity”. For the same molecule, the solubility at 2 h in data set [3] (buffer solution pH 1.2, 25 °C, pH 1.2, simulated gastric fluid) is 38.1 mg/mL (≈ 76.1 mM). Besides, the solubility at 2 h in data set [3] (buffer solution pH 6.8, 25 °C, pH 6.8, aqueous buffer) is 6.75 mg/mL (≈ 13.5 mM). Further, the hygroscopicity entry in data set [4] (DVS curve at 25° C.) is recorded as “almost no hygroscopicity”. The molecule further came in with a moisture absorption in data set [4] (at 80% RH) of 0.934%. In data set [5], the “inhibitory activity against EGFR” value is reported as “significant inhibitory activity” and the “selectivity to EGFR mutants” value is given as “high selectivity”.
As for Benzoate, in data set [6], the “AUC(0-t)” value is 856.41 ng·h/mL, the Cmax amounted to 203.15 ng/mL and the “peak time Tmax” value was 2 h.

The term solubility denotes how much of the substance goes into solution per volume. A low value points to little dissolved substance. One may read the AUC(0-t) as the area under the concentration-time curve up to a stated or last time point. Lower therefore signals low exposure. Broadly, the Cmax is the peak of the concentration-time curve.
